Test results from patent US6682892B2, “Method for treating herpes viruses” (priority 2000, dated 2004).
pIC50: −log10 of the molar value.

Columns and labels:
Format in all cases: cell-based
HCMV AD169 = assay: Plaque reduction assay, HCMV AD169; conditions: Table 4, plaque reduction, wild type; read-out: HCMV AD169 IC50
Procedure: (§1) Antiviral activity of compounds against herpesviruses such as HSV-1, HSV-2, or HCMV can be measured using plaque reduction assays. 0.1 ml of media containing approximately 50 PFU of virus is added to each well of a 24-well cell culture dish containing a confluent monolayer of cells (Vero cells for HSV-1 and HSV-2, HFF cells for HCMV). Compounds are dissolved in 100% DMSO and diluted in 100% DMSO as 200× stocks of the desired final drug concentration. Typically 5-6 two-fold dilutions are prepared for each compound. Dilutions of compounds are then added to media containing 0.8% CMC resulting in a final 1× drug concentration. After the virus-infected cells have incubated for 1 h at 37° C., the virus innoculum is removed and 1 ml of media containing 0.8% CMC and the various concentrations of compound is added to each well of the dish. The dish is incubated at 37° C. for approximately 2-3 days (HSV-1 and HSV-2) or 6-9 days (HCMV) to allow sufficient growth of virus to form plaques in the cell monolayer. Plaques can be observed and counted microscopically or by staining the cells with 0.1% crystal violet in 20% ethanol. […] Antiviral activity of a compound is expressed as the concentration of compound predicted to reduce the number of plaques in a well by 50% (IC50). The IC50 values are calculated by plotting the per cent inhibition vs. concentration of compound using EXCEL software for linear regression.

[1] = test system: HCMV AD169-M1 (V823A, V824L); assay: Plaque reduction assay, 4-oxo-DHQ resistant HCMV AD169-M1; conditions: Table 4, plaque reduction, resistant mutant; read-out: HCMV AD169 - M1 IC50
Procedure: as §1
A plasmid containing the wild-type HCMV polymerase gene is modified to contain the V823A or V823A and V824L mutations using a site-directed mutagenesis Kit (Stratagene Corp.) and following the manufactures's protocol. HFF cells are plated into T25 tissue culture flasks to achieve 80% confluency at the time of the transfection. Wild type HCMV AD 169 DNA and plasmid DNA containing the mutant HCMV polymerase gene are mixed at a ratio of 1:2 (2 ug of viral DNA to 4 ug of plasmid DNA). DNA's are transfected using superfect transfection reagent according to methods recommended by the manufacturer (Quiagen Inc.). Cells are harvested five days posttransfection, freeze-thawed to release virus and half of the sample is used to infect HFF cell monolayers. Cells are overlayed with media containing 20 uM 4-oxo-DHQ compound 2 (see FIG. 1). Serial passage is repeated seven times in the presence of 20 uM compound 2 and virus isolates are then plaque purified three times prior to preparation of viral stock.
In order to isolate an HCMV resistant mutant marker rescue experiments are done. Plasmids containing the mutant polymerase genes are transfected into HFF cells along with wild type HCMV AD169 DNA. The resulting virus is then serially passaged in the presence of 20 uM compound 1 (see FIG. 1). A 4-oxo-DHQ resistant virus is isolated from marker rescue studies done with the HCMV polymerase gene containing mutations that result in the V823A, V824L amino acid changes, but not with the gene containing V823A change alone.

HSV-2 186 = assay: Plaque reduction assay, HSV-2 186; conditions: Table 1, plaque reduction, Vero cells
Procedure: as §1
A panel of viruses consisting of four strains of HSV-1 (KOS, F, DJL, Patton) and three strains of HSV-2 (MS, 35D, 186) are tested in a plaque reduction assay against four different 4-oxo-DHQ compounds (#1, 2, 4, 5 as shown in FIG. 1), and one 4-oxo-DHTP compound (#3 as shown in FIG. 1) and against Acyclovir. The six drugs inhibited replication of the seven virus strains with IC50 values ranging from 2-10 μM (Table 1). In order to select for 4-oxo-DHQ resistant mutants, HSV-1 strains KOS, F, and DJL along with HSV-2 strains 186 and MS are serially passaged in the presence of 20 uM compound 1. Following the seventh passage, 4-oxo-DHQ resistant virus from each strain are plaque purified three times and high-titer stocks are made.

Cn1cc(C(=O)NCc2ccc(Cl)cc2)c(=O)c2cc(/C=C\CO)cc(F)c21 [Compound 1]
pIC50 (HCMV AD169): 6.15
pIC50 [1]: 5.33
IC50 (HSV-2 186): 2 µM
